Data as given in patent US8008328B2, “Methods for the treatment of diabetes-associated dyslipdemia” (Reddy US Therapeutics, Inc., priority 2007, dated 2011).

Assays:
[1] = tested on: insulin receptor substrate (IRS-1); experiment: IRS-1 Ser307 phosphorylation in differentiated 3T3L1 adipocytes (Western blot); type: cell-based, Murine; details: FIG. 1; for IRS-1 phosphorylation: agent alone compared to untreated, 3T3L1 adipocytes
db/db mice = experiment: Plasma insulin and lipids in db/db diabetic mouse model; type: in vivo
Protocol: The animals were 40 Female db/db diabetic mice, 4 weeks old on a diet of normal rodent chow. The tests were conducted on five groups, with 7-8 mice per group.
Group 1: Control CMC-tween, oral pipetting, 7 mice. Once a day for 28 days, 60 μl/mouse.
Group 2: Niacin 2.5 g/kg (roughly), in drinking water for 28 days, 7 mice (10 mg/mL in water).
Once a day for 28 days, 30 ul/mouse. (2 mg/mL in water)
Group 5: Pioglitazone 30 mg/kg/day, oral pipetting, 7 mice. Once a day for 28 days, 60 μL/mouse. (15 mg/mL in Vehicle)
Body weight was measured in all groups once a week. Food consumption was monitored once a week. All animals were fasted for 4 hours and plasma glucose levels were measured by OneTouch™ Ultra blood glucose meter. 35 animals were divided to 5 groups with 7 mice per group base on plasma glucose level. (Plasma glucose >120 mg/dL as a cut off for animal selection). 200 μL blood samples were collected from retro-orbital vein for plasma insulin level and lipids profile at baseline.
Treatment started for all groups and lasted for 28 days. 4 hours fast blood samples were collected for plasma insulin level and lipids profile at 2 weeks and 4 weeks post dose. The Oral Glucose Tolerance Test (“OGTT”) was conducted at day 16 and day 30 post dose.

THP-1 = experiment: Niacin-induced PGD2 secretion in PMA-differentiated THP-1 macrophages; type: cell-based, human; details: FIG. 4
[2] = db/db diabetic dyslipidemia model, FIG. 3

Molecule | effect on TNFα-induced IRS1 phosphorylation ([1]; cells incubated with compound 2 hours prior to TNFα (20 ng/mL, 30 minutes)) | insulin levels (db/db mice; db/db mice, 2 mg/kg/day for two weeks) | plasma insulin (db/db mice; db/db mice, treatment up to 28 days, FIG. 2) | effect on niacin's ability to increase HDL or decrease triglycerides (db/db mice; meloxicam added to niacin, db/db mice, FIG. 3) | effect on niacin-induced increase in PGD2 levels (THP-1; compound 30 minutes prior to niacin) | IRS-1 phosphorylation [1] | HDL (db/db mice; [2]) | triglycerides (db/db mice; [2]) | PGD2 levels in culture medium (THP-1; compared to controls)
Cc1cnc(NC(=O)C2=C(O)c3ccccc3S(=O)(=O)N2C)s1 [meloxicam] | inhibited | reduced | significantly reduced | did not affect | inhibited | – | – | – | –
O=C(O)c1cccnc1 [niacin, pyridine-3-carboxylic acid] | – | – | – | – | – | significantly increased | increase | decrease | increased
TNFα | – | – | – | – | – | increased | – | – | –
